From ChEMBL document CHEMBL1201862, “PubChem BioAssay data set” (2004)
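A five-concentration, 48-hour dose response in 96-well plates underlies each endpoint, interpolated linearly between surrounding concentrations. Here, GI50 denotes the concentration required for 50% inhibition of growth.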 Active and inactive are the calls of the source. Cut-off read from the data, not from the text of the source: active = GI50 up to about 1.1 µM and inactive = higher.

Assays:
Assay in all cases: DTP human tumour cell line panel, 48 h
U-251 = test system: U-251
NCI-H23 = test system: NCI-H23
PC-3 = test system: PC-3
SK-MEL-2 = test system: SK-MEL-2
NCI-H226 = test system: NCI-H226
HCT-15 = test system: HCT-15
HL-60 = test system: HL-60
ACHN = test system: ACHN
UACC-62 = test system: UACC-62
EKVX = test system: EKVX
HOP-92 = test system: HOP-92
RPMI-8226 = test system: RPMI-8226
SF-295 = test system: SF-295
RXF 393 = test system: RXF 393
MDA-MB-435 = test system: MDA-MB-435
SN12C = test system: SN12C
HT-29 = test system: HT-29
NCI-H460 = test system: NCI-H460
KM12 = test system: KM12
SK-OV-3 = test system: SK-OV-3

| SMILES | GI50 (U-251) | GI50 (NCI-H23) | GI50 (PC-3) | GI50 (SK-MEL-2) | GI50 (NCI-H226) | GI50 (HCT-15) [µM] | GI50 (HL-60) | GI50 (ACHN) | GI50 (UACC-62) | GI50 (EKVX) | GI50 (HOP-92) | GI50 (RPMI-8226) | GI50 (SF-295) | GI50 (RXF 393) | GI50 (MDA-MB-435) | GI50 (SN12C) | GI50 (HT-29) | GI50 (NCI-H460) | GI50 (KM12) | GI50 (SK-OV-3) |
| --- | --- | --- | --- | --- | --- | --- | --- | --- | --- | --- | --- | --- | --- | --- | --- | --- | --- | --- | --- | --- |
| [N-]=[N+]=Nc1ccccc1C(=O)N1C(=O)c2ccccc2C(=O)N(C(=O)c2ccccc2N=[N+]=[N-])c2ccccc21 | 40 µM (inactive) | 86.5 µM (inactive) | 21.4 µM (inactive) | 37.9 µM (inactive) | > 100 µM (inactive) | 54.8 | > 10 µM (inactive) | 45.1 µM (inactive) | 34.4 µM (inactive) | > 100 µM (inactive) | 23.1 µM (inactive) | 36.8 µM (inactive) | 41.9 µM (inactive) | 27.4 µM (inactive) | 43.5 µM (inactive) | 82.8 µM (inactive) | 98.6 µM (inactive) | 66.7 µM (inactive) | 57.8 µM (inactive) | 31.2 µM (inactive) |
| CN(C)c1ccc(/C=C/c2nc3ccccc3s2)cc1 | > 100 µM (inactive) | > 100 µM (inactive) | > 100 µM (inactive) | > 100 µM (inactive) | > 100 µM (inactive) | > 100 | 6.08 µM (inactive) | > 100 µM (inactive) | – | > 100 µM (inactive) | > 100 µM (inactive) | > 100 µM (inactive) | > 100 µM (inactive) | > 100 µM (inactive) | 45.1 µM (inactive) | > 100 µM (inactive) | > 100 µM (inactive) | > 100 µM (inactive) | > 100 µM (inactive) | > 100 µM (inactive) |
| CC(=O)C1C(=O)C(C(C)=O)C2C3C=CC(C3)C12 (stereo unspecified) | > 100 µM (inactive) | > 100 µM (inactive) | > 100 µM (inactive) | > 100 µM (inactive) | > 100 µM (inactive) | > 100 | > 100 µM (inactive) | > 100 µM (inactive) | > 100 µM (inactive) | – | > 100 µM (inactive) | > 100 µM (inactive) | > 100 µM (inactive) | > 100 µM (inactive) | > 100 µM (inactive) | > 100 µM (inactive) | > 100 µM (inactive) | > 100 µM (inactive) | > 100 µM (inactive) | > 100 µM (inactive) |
| CS(=O)(=O)O[C@H]1[C@H](O)c2ccccc2[C@@H]1N=[N+]=[N-] | > 100 µM (inactive) | > 100 µM (inactive) | > 100 µM (inactive) | > 100 µM (inactive) | > 100 µM (inactive) | > 100 | > 100 µM (inactive) | > 100 µM (inactive) | > 100 µM (inactive) | > 100 µM (inactive) | > 100 µM (inactive) | > 100 µM (inactive) | > 100 µM (inactive) | > 100 µM (inactive) | > 100 µM (inactive) | > 100 µM (inactive) | > 100 µM (inactive) | > 100 µM (inactive) | > 100 µM (inactive) | > 100 µM (inactive) |
| O=C(CN1CCOCC1)CC(O)(C(F)(F)F)C(F)(F)F | 51.4 µM (inactive) | 33.5 µM (inactive) | 32.1 µM (inactive) | 97.3 µM (inactive) | > 100 µM (inactive) | 55.5 | 61.7 µM (inactive) | 92.5 µM (inactive) | 44.6 µM (inactive) | > 100 µM (inactive) | 29.6 µM (inactive) | 55.2 µM (inactive) | 67 µM (inactive) | 20.1 µM (inactive) | > 100 µM (inactive) | – | > 10 µM (inactive) | – | 77.8 µM (inactive) | > 100 µM (inactive) |
| COc1ccc(-n2c(=O)c3nc(S)[nH]c3n(-c3ccc(OC)cc3)c2=S)cc1 | > 100 µM (inactive) | > 100 µM (inactive) | > 100 µM (inactive) | > 100 µM (inactive) | > 100 µM (inactive) | > 100 | > 100 µM (inactive) | > 100 µM (inactive) | > 100 µM (inactive) | > 100 µM (inactive) | > 100 µM (inactive) | > 100 µM (inactive) | > 100 µM (inactive) | > 100 µM (inactive) | > 100 µM (inactive) | > 100 µM (inactive) | > 100 µM (inactive) | > 100 µM (inactive) | > 100 µM (inactive) | > 100 µM (inactive) |
| Cc1c(C#N)c(=N)oc2ccccc12 | > 100 µM (inactive) | > 100 µM (inactive) | > 100 µM (inactive) | 84.1 µM (inactive) | > 100 µM (inactive) | 83.2 | > 100 µM (inactive) | > 100 µM (inactive) | > 100 µM (inactive) | 49.8 µM (inactive) | > 100 µM (inactive) | > 100 µM (inactive) | > 100 µM (inactive) | > 100 µM (inactive) | > 100 µM (inactive) | > 100 µM (inactive) | > 100 µM (inactive) | > 100 µM (inactive) | > 100 µM (inactive) | > 100 µM (inactive) |
